Results on five molecules are retold here after article PMC5382548 (Scientific Reports, 2015).

Where two headings read alike, the source gives them in different places.

The subject of experiment [1] is T-loop, a 26-mer hairpin double-stranded DNA. As to the kind of experiment: FRET melting assay, T-loop hairpin ds-DNA. Type of experiment: binding. The settings on record: ds-DNA 0.2 μM, ligand 1 μM, K-cacodylate buffer pH 7.4, 60 mM K+. Here is the method: Fluorescence resonance energy transfer (FRET) studies with DNA sequences labelled at the 5′ and 3′ ends, were conducted to evaluate the G4 DNA stabilizing properties of IQcs (at 0.1 to 5 μM ligand concentrations). The G4-forming sequence KRAS21R[11], together with T-loop, a 26-mer hairpin double-stranded DNA (ds-DNA) sequence were used in the first screening assay. Reproducible IQc dose-dependent melting curves (Sup. Inf.; Figure S3) and stabilization temperature (ΔTm) values were obtained (Figure 2 and Table S5).
Figure 2 FRET stabilization temperatures (ΔTm) of KRAS21R G4 and hairpin ds-DNA (T-loop) at 0.2 μM, in K-cacodylate buffer (pH = 7.4, 60 mM K^+), stabilized by IQc derivatives and TMPyP4 at 1 μM. ^a) SD ≤ 0.2°C. TEXT PRINTED IN THE PICTURE: TMPyP4: ΔTm / °C ^a) (T-Loop): 16.0; ΔTm / °C ^a) (KRAS21R): 25.1 | 3e: ΔTm / °C ^a) (T-Loop): 6.5; ΔTm / °C ^a) (KRAS21R): 22.0 | 3d: ΔTm / °C ^a) (T-Loop): 5.6; ΔTm / °C ^a) (KRAS21R): 19.9 | 2d: ΔTm / °C ^a) (T-Loop): 6.1; ΔTm / °C ^a) (KRAS21R): 15.1 | 2a: ΔTm / °C ^a) (T-Loop): 1.5; ΔTm / °C ^a) (KRAS21R): 4.4 […]
Oligonucleotide sequences were purchased from Eurofins MWG Synthesis GmbH, Germany or STAB VIDA Genomics Lab, Caparica, Lisbon, Portugal. The labelled oligonucleotides used in the FRET assays had attached the donor fluorophore FAM (6-carboxyfluorescein) and the acceptor fluorophore TAMRA (6-carboxytetramethylrhodamine): KRAS21R: 5′-FAM-[…]-TAMRA-3′; KRAS32R: 5′-FAM-[…]-TAMRA-3′; UTR-1: 5′-FAM-GCGGCGGCGGAGG-TAMRA-3′; UTR-2: 5′-FAM-[…]-TAMRA-3; T-Loop:5′-FAM-[…]-TAMRA-3′; F21T: 5′-FAM-[…]-TAMRA-3′. Non-labelled oligonucleotides were used in FRET competition assays and in the spectroscopic studies: ds26: - d(5′-CAATCGGATCGAATT CGATCCGATTG-3′); KRAS21R: 5′-[…]-3′; HT21: 5′-[…]-3′. Each oligonucleotide was initially diluted to a storage solution at 100 μM in nuclease-free water (not DEPC-treated), purchased from Ambion Applied Biosystems UK.
The ability of indolo[3,2-c]quinolines to stabilize DNA sequences was investigated using a Fluorescence Resonance Energy Transfer (FRET) assay as reported elsewhere.
Figure S3 (cont.)| Concentration-dependent (0.1, 0.5, 1, 2, 3, 4 and 5 µM) FRET melting profiles of G4 structures and T-loop DNA with indolo[3,2-c]quinoline derivatives 1a, 2a-g and 3d-j in K-cacodylate buffer (pH 7.4, 60 mM K+). […]
Table S5 | FRET stabilization temperatures (ΔTm) of G4s sequences and ds-DNA (0.2 µM) stabilized by […]

For a further experiment, the system named is SW620 (metastatic colon). Nature of the experiment: MTS short-term cytotoxicity assay, SW620. Type of experiment: cell-based. The note with it: Homo sapiens, read-out: IC50 SW620. Here is the method: Short-term anti-proliferative assays were carried out by two different assays using a panel of human cancer and non-malignant human cell lines. […] The transformed human embryonic kidney cell line HEK293T (wt KRAS) was sensitive to all tested drugs, including TMPyP4, a cationic porphyrin established as a G4 ligand, as well as the anticancer drug 5-fluorouracil (5-FU).
HCT116 human colon carcinoma cells, SW620 human colorectal adenocarcinoma and HEK293 T human embryonic kidney cells were grown in Dulbecco's modified Eagle's medium (DMEM) supplemented with 10% fetal bovine serum, and 1% antibiotic/antimycotic (Invitrogen, Grand Island, NY, USA) and maintained at 37°C in a humidified atmosphere of 5% CO2. Cells were seeded in 96 well plates at 5.000 cells/well. Twenty-four hours after cell plating, media was removed and replaced with fresh media containing test compounds and 5-FU (Sigma), a common cytotoxic agent used in colon cancer treatmen, or vehicle control (DMSO). Following 72 h of compound exposure, cell viability was evaluated using the CellTiter 96 AQueous Non-Radioactive Cell Proliferation Assay (Promega, Madison, WI, USA), using 3-(4,5-dimethylthiazol-2-yl)-5-(3-carboxymethoxyphenyl)-2-(4-sulfophenyl)-2H-tetrazolium, inner salt (MTS) as previously described. Cell viability data were expressed as mean ± SEM or mean ± SD from at least three independent experiments. IC50 and IC65 values were determined using GaphPad Prism v.5.00 (GraphPad Software). (Performed at Cell Function and Therapeutic Targeting Group, iMed.ULisboa)

The term IC50 denotes the concentration that inhibits the measured activity by half. For `CCN(CC)CCCNc1ccc2c(c1)c1[nH]c3ccccc3c1c[n+]2C` [2d], the “FRET stabilization temperature ΔTm (T-loop)” value in experiment [1] came out at 6.1 °C. The IC50 in the experiment with SW620 (metastatic colon) (SW-620, MTS assay, 72 h) was 590 nM.

`CCN(CC)CCCNc1ccc2[nH]c3c(c[n+](C)c4ccc(NCCCN(CC)CC)cc34)c2c1.[Cl-]` [3d]: the “FRET stabilization temperature ΔTm (T-loop)” value in experiment [1] was 5.6 °C. Also, the IC50 in the experiment with SW620 (metastatic colon) (SW-620, MTS assay, 72 h) is 4740 nM.

As to `C[n+]1ccc(-c2c3nc(c(-c4cc[n+](C)cc4)c4ccc([nH]4)c(-c4cc[n+](C)cc4)c4ccc([nH]4)c(-c4cc[n+](C)cc4)c4nc2C=C4)C=C3)cc1` [TMPyP4, reference compound], in experiment [1], the “FRET stabilization temperature ΔTm (T-loop)” value came out at 16.0 °C. Moreover, the IC50 with SW620 (metastatic colon) (SW-620, 72 h) was > 20000 nM.

With `Cn1cc2c3ccccc3nc-2c2cc(Br)ccc21` [2a, 2-bromo-5-methyl-indolo[3,2-c]quinoline], the “FRET stabilization temperature ΔTm (T-loop)” value in experiment [1] was found to be 1.5 °C. For the same molecule, the IC50 in the experiment with SW620 (metastatic colon) (SW-620, MTS assay, 72 h) was 200 nM.

Take `CCN(CC)CCCNc1ccc2c(c1)[nH]c1c2c[n+](C)c2ccc(NCCCN(CC)CC)cc12.[Cl-]` [3e]: the “FRET stabilization temperature ΔTm (T-loop)” value in experiment [1] came to 6.5 °C. Also, the IC50 in the experiment with SW620 (metastatic colon) (SW-620, MTS assay, 72 h) came out at 1790 nM.
